System: JR251 or RBL cells
Experiment: Store-operated calcium entry, either JR251 or RBL cells, or both
Type: cell-based
Procedure, shortened: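 FLIPR calcium-entry readout in fluo-4-loaded cells held in Ca2+-free HBSS before calcium add-back. For RBL-2H3, store depletion used thapsigargin for 25 min after a 5 min compound pre-incubation, and IC50 was based on the 7 s Upslope. For Orai1/STIM1 stable cells, compound was pre-incubated 30 min and IC50 was based on Peak-Basal.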

Row | SMILES | IC50 [µM]
1 | Cc1ccc(-c2csc(NC(=O)c3cc4ccccn4n3)c2C(=O)O)c(F)c1F [4-(2,3-difluoro-4-methylphenyl)-2-(pyrazolo[1,5-a]pyridine-2-carboxamido)thiophene-3-carboxylic acid] | < 10
2 | Cc1ccc(-c2csc(NC(=O)c3cnc4ccccc4n3)c2C(=O)O)c(F)c1F [4-(2,3-difluoro-4-methylphenyl)-2-(quinoxaline-2-carboxamido)thiophene-3-carboxylic acid] | < 10
3 | Cc1ccc(-c2csc(NC(=O)c3cc4sccc4s3)c2C(=O)O)c(F)c1F [4-(2,3-difluoro-4-methylphenyl)-2-(thieno[3,2-b]thiophene-2-carboxamido)thiophene-3-carboxylic acid] | < 10
4 | O=C(CCc1ccccc1)Nc1scc(-c2cc(F)c(Cl)cc2Cl)c1C(=O)O [4-(2,4-dichloro-5-fluorophenyl)-2-(3-phenylpropanamido)thiophene-3-carboxylic acid] | < 10
5 | O=C(CSc1ccccc1)Nc1scc(-c2ccc(Cl)cc2Cl)c1C(=O)O [4-(2,4-dichlorophenyl)-2-(2-(phenylthio)acetamido)thiophene-3-carboxylic acid] | < 10
6 | O=C(CCc1ccccc1)Nc1scc(-c2ccc(Cl)cc2Cl)c1C(=O)O [4-(2,4-dichlorophenyl)-2-(3-phenylpropanamido)thiophene-3-carboxylic acid] | < 10
7 | O=C(CSc1ccccc1)Nc1scc(-c2ccccc2Br)c1C(=O)O [4-(2-bromophenyl)-2-(2-(phenylthio)acetamido)thiophene-3-carboxylic acid] | < 10
8 | Cc1ccsc1C(=O)Nc1scc(-c2ccccc2Br)c1C(=O)O [4-(2-bromophenyl)-2-(3-methylthiophene-2-carboxamido)thiophene-3-carboxylic acid] | < 10
9 | O=C(O)c1c(-c2ccccc2Br)csc1NC(=O)C1CC1 [4-(2-bromophenyl)-2-(cyclopropanecarboxamido)thiophene-3-carboxylic acid] | < 10
10 | O=C(Nc1scc(-c2ccccc2Br)c1C(=O)O)c1cccs1 [4-(2-bromophenyl)-2-(thiophene-2-carboxamido)thiophene-3-carboxylic acid] | < 10
11 | COc1cccc(CC(=O)Nc2scc(-c3ccc(Cl)c(Cl)c3)c2C(=O)O)c1 [4-(3,4-dichlorophenyl)-2-(2-(3-methoxyphenyl)acetamido)thiophene-3-carboxylic acid] | < 10
12 | O=C(CCc1ccccc1)Nc1scc(-c2ccc(Cl)c(Cl)c2)c1C(=O)O [4-(3,4-dichlorophenyl)-2-(3-phenylpropanamido)thiophene-3-carboxylic acid] | < 10
13 | O=C(Nc1scc(-c2ccc(Cl)c(Cl)c2)c1C(=O)O)c1ccsc1 [4-(3,4-dichlorophenyl)-2-(thiophene-3-carboxamido)thiophene-3-carboxylic acid] | < 10
14 | Cc1ccc(-c2csc(NC(=O)c3sccc3C)c2C(=O)O)cc1C [4-(3,4-dimethylphenyl)-2-(3-methylthiophene-2-carboxamido)thiophene-3-carboxylic acid] | < 10
15 | Cc1ccc(-c2csc(NC(=O)c3ccsc3)c2C(=O)O)cc1C [4-(3,4-dimethylphenyl)-2-(thiophene-3-carboxamido)thiophene-3-carboxylic acid] | < 10
16 | Cc1ccsc1C(=O)Nc1scc(-c2cccc(Cl)c2)c1C(=O)O [4-(3-chlorophenyl)-2-(3-methylthiophene-2-carboxamido)thiophene-3-carboxylic acid] | < 10
17 | O=C(Nc1scc(-c2cccc(Cl)c2)c1C(=O)O)c1ccsc1 [4-(3-chlorophenyl)-2-(thiophene-3-carboxamido)thiophene-3-carboxylic acid] | < 10
18 | O=C(O)c1c(-c2ccc(Br)cc2)csc1NC(=O)C1CCc2ccccc2C1 (stereo not drawn) [4-(4-bromophenyl)-2-(1,2,3,4-tetrahydronaphthalene-2-carboxamido)thiophene-3-carboxylic acid] | < 10
19 | Cc1nn(C)c2sc(C(=O)Nc3scc(-c4ccc(Br)cc4)c3C(=O)O)cc12 [4-(4-bromophenyl)-2-(1,3-dimethyl-1H-thieno[2,3-c]pyrazole-5-carboxamido)thiophene-3-carboxylic acid] | < 10
20 | Cn1cnc(C(=O)Nc2scc(-c3ccc(Br)cc3)c2C(=O)O)c1 [4-(4-bromophenyl)-2-(1-methyl-1H-imidazole-4-carboxamido)thiophene-3-carboxylic acid] | < 10
21 | O=C(O)c1c(-c2ccc(Br)cc2)csc1NC(=O)C1Cc2ccccc2C1 [4-(4-bromophenyl)-2-(2,3-dihydro-1H-indene-2-carboxamido)thiophene-3-carboxylic acid] | < 10
22 | O=C(O)c1c(-c2ccc(Br)cc2)csc1NC(=O)C1Cc2ccccc2O1 (stereo not drawn) [4-(4-bromophenyl)-2-(2,3-dihydrobenzofuran-2-carboxamido)thiophene-3-carboxylic acid] | < 10
23 | O=C(CSc1ccccc1)Nc1scc(-c2ccc(Br)cc2)c1C(=O)O [4-(4-bromophenyl)-2-(2-(phenylthio)acetamido)thiophene-3-carboxylic acid] | < 10

Row | SMILES | IC50 [µM]
24 | Cc1cc(C(=O)Nc2scc(-c3ccc(Br)cc3)c2C(=O)O)cc(O)n1 [4-(4-bromophenyl)-2-(2-hydroxy-6-methylisonicotinamido)thiophene-3-carboxylic acid] | < 10
25 | CC(C(=O)Nc1scc(-c2ccc(Br)cc2)c1C(=O)O)C(C)c1ccccc1 (stereo not drawn) [4-(4-bromophenyl)-2-(2-methyl-3-phenylbutanamido)thiophene-3-carboxylic acid] | < 10
26 | CC(Cc1ccccc1)C(=O)Nc1scc(-c2ccc(Br)cc2)c1C(=O)O (stereo not drawn) [4-(4-bromophenyl)-2-(2-methyl-3-phenylpropanamido)thiophene-3-carboxylic acid] | < 10
27 | O=C(CC(c1ccccc1)c1ccccc1)Nc1scc(-c2ccc(Br)cc2)c1C(=O)O [4-(4-bromophenyl)-2-(3,3-diphenylpropanamido)thiophene-3-carboxylic acid] | < 10
28 | O=C(CCc1ccc(F)cc1F)Nc1scc(-c2ccc(Br)cc2)c1C(=O)O [4-(4-bromophenyl)-2-(3-(2,4-difluorophenyl)propanamido)thiophene-3-carboxylic acid] | < 10
29 | O=C(O)c1c(-c2ccc(Br)cc2)csc1NC(=O)C(F)Cc1c(Cl)cccc1Cl (stereo not drawn) [4-(4-bromophenyl)-2-(3-(2,6-dichlorophenyl)-2-fluoropropanamido)thiophene-3-carboxylic acid] | < 10
30 | O=C(CCc1c(Cl)cccc1Cl)Nc1scc(-c2ccc(Br)cc2)c1C(=O)O [4-(4-bromophenyl)-2-(3-(2,6-dichlorophenyl)propanamido)thiophene-3-carboxylic acid] | < 10
31 | Cc1cccc(C)c1CCC(=O)Nc1scc(-c2ccc(Br)cc2)c1C(=O)O [4-(4-bromophenyl)-2-(3-(2,6-dimethylphenyl)propanamido)thiophene-3-carboxylic acid] | < 10
32 | O=C(O)c1c(-c2ccc(Br)cc2)csc1NC(=O)C(F)Cc1cc(F)c(F)cc1Cl (stereo not drawn) [4-(4-bromophenyl)-2-(3-(2-chloro-4,5-difluorophenyl)-2-fluoropropanamido)thiophene-3-carboxylic acid] | < 10
33 | O=C(O)c1c(-c2ccc(Br)cc2)csc1NC(=O)C(F)Cc1ccc(F)cc1Cl (stereo not drawn) [4-(4-bromophenyl)-2-(3-(2-chloro-4-fluorophenyl)-2-fluoropropanamido)thiophene-3-carboxylic acid] | < 10
34 | O=C(O)c1c(-c2ccc(Br)cc2)csc1NC(=O)C(F)Cc1cc(F)ccc1Cl (stereo not drawn) [4-(4-bromophenyl)-2-(3-(2-chloro-5-fluorophenyl)-2-fluoropropanamido)thiophene-3-carboxylic acid] | < 10
35 | O=C(O)c1c(-c2ccc(Br)cc2)csc1NC(=O)C(F)Cc1c(F)cccc1Cl (stereo not drawn) [4-(4-bromophenyl)-2-(3-(2-chloro-6-fluorophenyl)-2-fluoropropanamido)thiophene-3-carboxylic acid] | < 10
36 | O=C(O)c1c(-c2ccc(Br)cc2)csc1NC(=O)C(F)Cc1ccccc1Cl (stereo not drawn) [4-(4-bromophenyl)-2-(3-(2-chlorophenyl)-2-fluoropropanamido)thiophene-3-carboxylic acid] | < 10
37 | O=C(CCc1ccccc1Cl)Nc1scc(-c2ccc(Br)cc2)c1C(=O)O [4-(4-bromophenyl)-2-(3-(2-chlorophenyl)propanamido)thiophene-3-carboxylic acid] | < 10
38 | O=C(CCc1ccccc1F)Nc1scc(-c2ccc(Br)cc2)c1C(=O)O [4-(4-bromophenyl)-2-(3-(2-fluorophenyl)propanamido)thiophene-3-carboxylic acid] | < 10
39 | O=C(CCc1ccc(F)c(F)c1)Nc1scc(-c2ccc(Br)cc2)c1C(=O)O [4-(4-bromophenyl)-2-(3-(3,4-difluorophenyl)propanamido)thiophene-3-carboxylic acid] | < 10
40 | CCc1cccc(NC(=O)Nc2scc(-c3ccc(Br)cc3)c2C(=O)O)c1 [4-(4-bromophenyl)-2-(3-(3-ethylphenyl)ureido)thiophene-3-carboxylic acid] | < 10
41 | O=C(CCc1cccc(F)c1)Nc1scc(-c2ccc(Br)cc2)c1C(=O)O [4-(4-bromophenyl)-2-(3-(3-fluorophenyl)propanamido)thiophene-3-carboxylic acid] | < 10
42 | O=C(Nc1cccc(F)c1)Nc1scc(-c2ccc(Br)cc2)c1C(=O)O [4-(4-bromophenyl)-2-(3-(3-fluorophenyl)ureido)thiophene-3-carboxylic acid] | < 10
43 | COc1cccc(CCC(=O)Nc2scc(-c3ccc(Br)cc3)c2C(=O)O)c1 [4-(4-bromophenyl)-2-(3-(3-methoxyphenyl)propanamido)thiophene-3-carboxylic acid] | < 10
44 | O=C(CCc1ccc(F)cc1)Nc1scc(-c2ccc(Br)cc2)c1C(=O)O [4-(4-bromophenyl)-2-(3-(4-fluorophenyl)propanamido)thiophene-3-carboxylic acid] | < 10
45 | COc1ccc(CCC(=O)Nc2scc(-c3ccc(Br)cc3)c2C(=O)O)cc1 [4-(4-bromophenyl)-2-(3-(4-methoxyphenyl)propanamido)thiophene-3-carboxylic acid] | < 10

From US8394848B2, “Compounds that modulate intracellular calcium” (Calcimedica, Inc., priority 2008, dated 2013)
